Results as given in patent US10828301B2, “2,4-pyrimidinediamine compounds and their uses” (Rigel Pharmaceuticals, Inc, priority 2002, dated 2020).

Legend:
[1] = system: cultured human mast cells (CHMC); test: CHMC low cell density IgE activation: tryptase and LTC4 assays; assay type: cell-based
Method in brief: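 Cultured human mast cells at low density (1000-1500 per well) rested 1 h at 37° C, then stimulated with anti-IgE for 30 min at 37° C. Supernatant tryptase measured with fluorogenic substrate (30 min, room temperature); LTC4 quantified by ELISA on diluted supernatant.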

[2] = system: cultured human mast cells (CHMC); test: CHMC low cell density ionomycin activation: tryptase assay; assay type: cell-based; settings: read-out: CHMC Ionomycin Tryptase
[3] = Low Density CHMC, anti-IgE activation, tryptase readout, read-out: CHMC anti-IgE Tryptase
[4] = Low Density CHMC, ionomycin activation, tryptase readout
[5] = Homo sapiens, Mast cell, Low Density CHMC, anti-IgE activation, tryptase readout, read-out: CHMC anti-IgE Tryptase
[6] = Homo sapiens, Mast cell, Low Density CHMC, ionomycin activation, tryptase readout
[7] = Homo sapiens, Mast cell, read-out: CHMC anti-IgE Tryptase

| SMILES | IC50 [1, 5] | IC50 [2, 6] | other results |
| --- | --- | --- | --- |
| CNC(=O)Cn1ncc2ccc(Nc3nc(Nc4ccc(OC(C)C)cc4)ncc3F)cc21 [Compound R935224, 5-Fluoro-N2-(4-isopropoxyphenyl)-N4-[1-(N-methylaminocarbonyl)methyl-indazoline-6-yl]-2,4-pyrimidinediamine] | – | – | IC50 [1, 3]: 4.58 µM; IC50 [2, 4]: > 10 µM |
| Oc1cccc(Nc2nc(Nc3ccc4[nH]ccc4c3)ncc2F)c1 [Compound R926749, 5-Fluoro-N4-(3-hydroxyphenyl)-N2-[(1H)-indol-5-yl]-2,4-pyrimidinediamine] | 0.472 µM | > 10 µM | – |
| Fc1cnc(NCCc2ccccc2)nc1Nc1ccc2c(c1)OCCO2 (racemic) [Compound R908697, (±)-N4-(3,4-Ethylenedioxyphenyl)-5-fluoro-N2-(2-phenylethyl)-2,4-pyrimidinediamine] | > 10 µM | > 10 µM | – |
| Oc1cccc(Nc2nc(N=Cc3ccoc3)ncc2F)c1 [Compound R950210, N2-(3-Furylmethylene)-5-fluoro-N4-(3-hydroxyphenyl)-2,4-pyrimidinediamine] | 10 µM | > 10 µM | – |
| CNC(=O)COc1cccc(Nc2ncc(F)c(Nc3ccc4c(c3)C(O)CCC4)n2)c1 (racemic) [Compound R926949, 5-Fluoro-N4-(1,2,3,4-tetrahydro-1-hydroxynaphthalen-7-yl)-N2-[3-[(N-methylamino)carbonylmethyleneoxy]phenyl]-2,4-pyrimidinediamine] | – | – | IC50 [1, 3]: 0.089 µM; IC50 [2, 4]: > 10 µM |
| Nc1cc(Nc2ncc(F)c(Nc3ccc([N+](=O)[O-])c(N)c3)n2)ccc1[N+](=O)[O-] [Compound R950135, N2,N4-Bis(3-amino-4-nitrophenyl)-5-fluoro-2,4-pyrimidinediamine] | – | – | IC50 [1, 7]: 0.85 µM; IC50 ([2]; Homo sapiens, Mast cell): > 10 µM |
| N#Cc1cccc(Nc2ncc(F)c(Nc3cccc(C#N)c3)n2)c1 [Compound R945051, N2,N4-Bis(3-cyanophenyl)-5-fluoro-2,4-pyrimidinediamine] | 0.95 µM | > 10 µM | – |
| Oc1cccc(Nc2ncc(F)c(Nc3ccc4[nH]ccc4c3)n2)c1 [Compound R926932, 5-Fluoro-N2-(3-hydroxyphenyl)-N4-[(1H)-indol-5-yl]-2,4-pyrimidinediamine] | 0.31 µM | > 10 µM | – |
| Fc1cnc(NCc2csc3ccccc23)nc1NCc1csc2ccccc12 [Compound R945145, N2,N4-Bis(benzothiophen-3-ylmethyl)-5-fluoro-2,4-pyrimidinediamine] | > 10 µM | > 10 µM | – |
| Clc1cccc(-c2cnc(Nc3ccc4c(c3)OCCO4)nc2Nc2ccc3c(c2)OCCO3)c1 [Compound R925787, N2,N4-Bis(3,4-ethylenedioxyphenyl)-5-(3-chlorophenyl)-2,4-pyrimidinediamine] | 9 µM | > 10 µM | – |
| Fc1cnc(Nc2ccc3c(c2)OC(F)(F)O3)nc1Nc1ccc2c(c1)OCCO2 [Compound R926386, N2-(2,2-Difluorobenzodioxol-5-yl)-N4-(3,4-ethylenedioxyphenyl)-5-fluoro-2,4-pyrimidinediamine] | > 10 µM | > 10 µM | – |
| CNCCNC(=O)C=Nc1cccc(Nc2ncc(F)c(Nc3cccc(O)c3)n2)c1 [Compound R950225, 5-Fluoro-N4-(3-hydroxyphenyl)-N2-[3-[(N-methylamino)ethylamino]carbonylmethyleneaminophenyl]-2,4-pyrimidinediamine] | 5.28 µM | > 10 µM | – |
| COc1ccc(OCCNc2ncc(F)c(Nc3ccc4c(c3)OCCO4)n2)cc1 [Compound R950204, N4-(3,4-Ethylenedioxyphenyl)-5-fluoro-N2-[(4-methoxyphenyloxy)ethyl]-2,4-pyrimidinediamine] | 6.29 µM | > 10 µM | – |
| COc1ccc(Nc2ncc([N+](=O)[O-])c(Nc3ccc(OC)c(OC)c3)n2)cc1OC [Compound R940089, N2,N4-Bis-(3,4-dimethoxypenyl)-5-nitro-2,4-pyrimidinediamine] | – | – | IC50 [1, 3]: > 10 µM; IC50 [2, 4]: > 10 µM |
| O=[N+]([O-])c1cc(Nc2ncc(F)c(Nc3ccc(Cl)c([N+](=O)[O-])c3)n2)ccc1Cl [Compound R950149, N2,N4-Bis(4-chloro-3-nitrophenyl)-5-fluoro-2,4-pyrimidinediamine] | – | – | IC50 [1, 7]: 10 µM; IC50 ([2]; Homo sapiens, Mast cell): > 10 µM |
| N#Cc1cnc(Nc2cccc(O)c2)nc1Nc1cccc(O)c1 [Compound R925774, N2,N4-Bis(3-hydroxyphenyl)-5-cyano-2,4-pyrimidinediamine] | 0.435 µM | > 10 µM | – |
| COc1ccc(Nc2ncc(F)c(Nc3ccc4c(c3)OCCO4)n2)c(C)c1 [Compound R926845, N4-(3,4-Ethylenedioxyphenyl)-5-fluoro-N2-(4-methoxy-2-methylphenyl)-2,4-pyrimidinediamine] | 2.56 µM | 7.81 µM | – |
| COC(=O)c1cc2cc(Nc3ncc(F)c(Nc4ccc5[nH]c(C(=O)OC)cc5c4)n3)ccc2[nH]1 [Compound R926593] | – | – | IC50 ([1]; Low Density CHMC, anti-IgE activation, LTC4 readout, read-out: CHMC anti-IgE LTC4): 0.495 µM; IC50 [1, 3]: 0.68 µM; IC50 [2, 4]: 8.3 µM |

Now from value to molecule, other results behind:

| IC50 [1, 5] | IC50 [2, 6] | SMILES | other results |
| --- | --- | --- | --- |
| 2.1 µM | > 10 µM | Fc1cnc(Nc2ccc3c(c2)OCO3)nc1Nc1ccc2c(c1)OCO2 [Compound R925776, N2,N4-Bis(3,4-methylenedioxyphenyl)-5-fluoro-2,4-pyrimidinediamine] | – |
| > 10 µM | > 10 µM | CC(=O)Nc1ccc(Nc2ncc(F)c(Nc3ccc(NC(C)=O)cc3)n2)cc1 [Compound R940222, N2,N4-Bis-(4-Acetamidophenyl)-5-fluoro-2,4-pyrimidinediamine] | – |
| 3.58 µM | > 10 µM | OCCOc1ccc(Nc2ncc(F)c(Nc3ccc4c(c3)N=CCO4)n2)cc1 [Compound R909248, N4-(1,4-Benzoxazin-6-yl)-5-fluoro-N2-[4-(2-hydroxyethyl)oxyphenyl]-2,4-pyrimidinediamine] | – |
| 0.558 µM | > 10 µM | CCOC(=O)C=Nc1cccc(Nc2ncc(F)c(Nc3ccc4c(c3)OCCO4)n2)c1 [Compound R950186, N4-(3,4-Ethylenedioxyphenyl)-N2-(3-ethoxycarbonylmethyleneaminophenyl)-5-fluoro-2,4-pyrimidinediamine] | – |
| 3.15 µM | > 10 µM | Oc1cccc(Nc2cc(Nc3cccc(O)c3)nc(Nc3cccc(O)c3)n2)c1 [Compound R926409, N2,N4,N6-Tris(3-hydroxyphenyl)-2,4,6-pyrimidinetriamine] | – |
| > 10 µM | > 10 µM | Cc1c(O)ccc(Nc2ncc(F)c(Nc3ccc(O)c(C)c3C)n2)c1C [Compound R940217, N2,N4-Bis-(2,3-dimethyl-4-hydroxyphenyl)-5-fluoro-2,4-pyrimidinediamine] | – |
| 3.76 µM | > 10 µM | Oc1cccc(Nc2ncc(F)c(NCc3csc4ccccc34)n2)c1 [Compound R945146, N4-(Benzothiophen-3-ylmethyl)-5-fluoro-N2-(3-hydroxyphenyl)-2,4-pyrimidinediamine] | – |
| > 10 µM | > 10 µM | COC(=O)c1ccc(-c2cnc(Nc3ccc4c(c3)OCCO4)nc2Nc2ccc3c(c2)OCCO3)cc1 [Compound R925813, N2,N4-Bis(3,4-ethylenedioxyphenyl)-5-(4-methoxycarbonylphenyl)-2,4-pyrimidinediamine] | – |
| 8.41 µM | > 10 µM | CC(=O)Nc1cccc(Nc2ncc(F)c(Nc3cccc(NC(C)=O)c3)n2)c1 [Compound R926682, N2,N4-Bis(3-acetamidophenyl)-5-fluoro-2,4-pyrimidinediamine] | – |
